How the values were obtained:
MV4-11 AML cells = test: Cell proliferation assay, single agents and FTI/FLT3 inhibitor combinations, MV4-11; type: cell-based, human
Description: Using this method inhibitors are added simultaneously to cells in a ratio of the IC50 dose of each compound alone. The data is collected and subject to isobolar analysis of fixed ratio dose combinations as described by Chou and Talalay. This analysis is used to generate a combination index or CI. The CI value of 1 corresponds to compounds that behave additively; CI values <0.9 are considered synergistic and CI values of >1.1 are considered antagonistic. Using this method, multiple FTI and FLT3 combinations were evaluated. […] Using the isobologram, synergy can be graphically represented. Data points for combinations that are additive lie along the isobolar line at a given dose affect (CI=1). Data points for combinations that are synergistic fall to the left, or under, the isobolar line for a given dose effect (CI<0.9). Data points for combinations that are antagonistic fall to the right, or over, the isobolar line for a given dose effect (CI>1.1).
Inhibition data was analyzed using Calcsyn (BioSoft, Ferguson, Mo.) and the combination index (C.I.) calculated. C.I. values <0.9 are considered synergistic.

[1] = tested on: Baf3-FLT3 cells stimulated with 100 ng/ml FLT ligand; test: Cell proliferation assay, single agents and FTI/FLT3 inhibitor combinations, Baf3-FLT3; type: cell-based, murine
Description: (§1) The cell lines that were tested included those that are dependent on FLT3ITD mutant activity for growth (MV4-11 and Baf3-FLT3ITD), FLT3 wt activity for growth (Baf3FLT3) and those that grow independent of FLT3 activity (THP-1). […] Baf3-FLT3 and Baf3-FLT3ITD cell lines were obtained from Dr. Michael Henrich and the Oregon Health Sciences University. The Baf3 FLT3 cell lines were created by stable transfection of parental Baf3 cells (a murine B cell lymphoma line dependent on the cytokine IL-3 for growth) with either wild-type FLT3 or FLT3 containing the ITD insertion in the juxatamembrane domain of the receptor resulting in its constitutive activation. Cells were selected for their ability to grow in the absence of IL-3 and in either the presence of FLT3 ligand (Baf3-FLT3) or independent of any growth factor (Baf3-ITD). […]
(§2) Dose responses for the individual compounds alone were determined for each cell line using a standard 72-hour cell proliferation assay (see FIGS. 6.1-6.8). […]
(§3) To statistically evaluate the synergy of a FLT3 inhibitor and an FTI in FLT3 dependent cell lines, dosing combinations were evaluated by the method of Chou and Talalay. See Chou T C, Talalay P. (1984) “Quantitative analysis of dose-effect relationships: the combined effects of multiple drugs or enzyme inhibitors.” Adv Enzyme Regul. […] Using this method, multiple FTI and FLT3 combinations were evaluated. […]

Baf3-ITD cells = test: Cell proliferation assay, single agents and FTI/FLT3 inhibitor combinations, Baf3-ITD; type: cell-based, murine
Description: as §1, §2, §3

MV4-11 cells = test: Annexin V Staining (apoptosis); type: cell-based, human; settings: MV4-11, 48 hours, fixed ratio 4:1 Tipifarnib and Compound A
Excerpt: The ultimate goal of treatment for FLT3 related disorders is to kill the disease causative cells and to cause regression of disease. […] Annexin V binding to phosphotidyl serine that has translocated from the inner leaflet of the plasma membrane to the outer leaflet of the plasma membrane and is a well established way to measure apoptosis of cells. See van Engeland M., L. J. Nieland, et al. (1998) “Annexin V-affinity assay: a review on an apoptosis detection system based on phosphatidylserine exposure.” Cytometry. 31(1):1-9.
After the compound incubations, treated cells were harvested and stained with Annexin V-PE and 7-AAD using the Guava Nexin apoptosis kit according to the protocol in the Biological Activity Measurements section hereafter. Annexin V staining peaks at 60% because cells late in apoptosis begin to fall apart and are considered debris. […] Statistical analysis using the above described method of Chou and Talalay was also performed to determine the synergy of the combination. […] The magnitude of the synergistic induction of apoptosis of MV4-11 cells by the combination of an FTI and a FLT3 inhibitor could not be predicted by those skilled in the art. […]
Annexin V Staining. […] All annexin positive cells were considered apoptotic and percent Annexin positive cells was calculated.

[2] = cited from earlier work
[3] = multicenter Phase II trial, relapsed AML
[4] = patients with relapsed and refractory AML, phase I

Cn1cncc1C(N)(c1ccc(Cl)cc1)c1ccc2c(c1)c(-c1cccc(Cl)c1)cc(=O)n2C (single isomer, unassigned; (+)) [Tipifarnib, (+)-6-[amino(4-chlorophenyl)(1-methyl-1H-imidazol-5-yl)methyl]-4-(3-chlorophenyl)-1-methyl-2(1H)-quinolinone]
IC50 (MV4-11 AML cells; Homo sapiens, MV4-11 proliferation, FTI alone or in the combination named): 0.0154 µM | increase in potency of Tipifarnib with a single sub-IC50 dose of FLT3 inhibitor Compound A (MV4-11 AML cells; MV4-11, Compound A 50 nM): more than 3 fold | increase in potency of Tipifarnib with a single sub-IC50 dose of FLT3 inhibitor Compound A ([1]; Baf3-FLT3, Compound A 100 nM): more than 3 fold | IC50 ([1]; Mus musculus, Baf3-FLT3 proliferation, FTI alone or in the combination named): 0.00185 µM | increase in potency of Tipifarnib with a single sub-IC50 dose of FLT3 inhibitor Compound A (Baf3-ITD cells; Baf3-ITD, Compound A 50 nM): more than 3 fold | IC50 (Baf3-ITD cells; Mus musculus, Baf3-ITD proliferation, FTI alone or in the combination named): 0.548 µM | shift of EC50 for the induction of annexin V staining in combination (MV4-11 cells): more than eight-fold | >50% reduction in bone marrow blasts [2, 3]: 31 of 50 | complete responses (bone marrow blasts <5%) [2, 3]: 17 of 50 | patients achieving complete remission [2, 4]: 2 patients | response rate [2, 4]: ~30%

— patent US20060281700A1, “SYNERGISTIC MODULATION OF FLT3 KINASE USING AMINOPYRIMIDINES KINASE MODULATORS” (priority 2005, published 2006)
